# Assays:
# Format in all cases: binding
# [1] = molecular target: T1, SaBphP1-PCM (PAS-GAF-PHY) (Allostigmatella aurantiaca, UniProt Q097N3, D208T/T289H); test: UV-vis absorption spectroscopy of bilin-bound protein; settings: covalent; 740 / 700 nm illumination, room temperature
# T1 construct: gene STIAU_3396; photosensory core module PAS-GAF-PHY, residues 1-516, pET28c(+), E. coli BL21(DE3) co-expressing heme oxygenase; dimer; histidine kinase domain absent
# [2] = molecular target: T2, SaBphP1-PCM (PAS-GAF-PHY) (Allostigmatella aurantiaca, UniProt Q097N3, T289H); test: X-ray crystallography ([…] K, […] A; XFEL […] K, […] A); settings: covalent, Cys18; dark-adapted Pr state; pH 6.2
# T2 construct: gene STIAU_3396; photosensory core module PAS-GAF-PHY, residues 1-516, pET28c(+), E. coli BL21(DE3) co-expressing heme oxygenase; dimer; histidine kinase domain absent
# [3] = molecular target: T3, SaBphP1-PCM (PAS-GAF-PHY) (Allostigmatella aurantiaca, UniProt Q097N3, Y262F/T289H); test: UV-vis absorption spectroscopy of bilin-bound protein; settings: covalent; dark / 700 / 750 nm illumination, room temperature
# T3 construct: gene STIAU_3396; photosensory core module PAS-GAF-PHY, residues 1-516, pET28c(+), E. coli BL21(DE3) co-expressing heme oxygenase; dimer; histidine kinase domain absent
# [4] = molecular target: T4, SaBphP1-CBD (PAS-GAF) (Allostigmatella aurantiaca, UniProt Q097N3); test: X-ray crystallography ([…] K, […] A); settings: covalent, Cys18; dark-adapted Pr state; pH 8.5
# T4 construct: gene STIAU_3396; crystallographic dimer
# [5] = molecular target: T5, SaBphP1-PCM (PAS-GAF-PHY) (Allostigmatella aurantiaca, UniProt Q097N3); test: X-ray crystallography ([…] K, […] A); settings: covalent, Cys18; dark-adapted Pr state; pH 6.2
# T5 construct: gene STIAU_3396; photosensory core module PAS-GAF-PHY, residues 1-516, pET28c(+), E. coli BL21(DE3) co-expressing heme oxygenase; dimer; histidine kinase domain absent
# T5 sequence (Q097N3 entry or part of it): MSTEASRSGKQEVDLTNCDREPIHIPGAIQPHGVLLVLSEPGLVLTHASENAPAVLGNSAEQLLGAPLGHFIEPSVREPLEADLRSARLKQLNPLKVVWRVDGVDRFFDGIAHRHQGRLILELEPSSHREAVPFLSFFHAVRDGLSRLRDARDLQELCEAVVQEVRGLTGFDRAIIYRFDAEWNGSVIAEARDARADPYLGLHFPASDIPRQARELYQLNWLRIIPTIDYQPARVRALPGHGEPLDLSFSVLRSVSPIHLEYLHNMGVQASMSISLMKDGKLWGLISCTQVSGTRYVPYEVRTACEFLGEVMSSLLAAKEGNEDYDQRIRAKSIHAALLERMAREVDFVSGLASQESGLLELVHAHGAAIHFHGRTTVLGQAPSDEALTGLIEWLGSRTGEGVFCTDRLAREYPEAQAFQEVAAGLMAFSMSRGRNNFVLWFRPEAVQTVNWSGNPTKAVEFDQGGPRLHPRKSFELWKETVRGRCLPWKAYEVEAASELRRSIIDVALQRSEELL
# T1 sequence (Q097N3 entry or part of it D208T/T289H): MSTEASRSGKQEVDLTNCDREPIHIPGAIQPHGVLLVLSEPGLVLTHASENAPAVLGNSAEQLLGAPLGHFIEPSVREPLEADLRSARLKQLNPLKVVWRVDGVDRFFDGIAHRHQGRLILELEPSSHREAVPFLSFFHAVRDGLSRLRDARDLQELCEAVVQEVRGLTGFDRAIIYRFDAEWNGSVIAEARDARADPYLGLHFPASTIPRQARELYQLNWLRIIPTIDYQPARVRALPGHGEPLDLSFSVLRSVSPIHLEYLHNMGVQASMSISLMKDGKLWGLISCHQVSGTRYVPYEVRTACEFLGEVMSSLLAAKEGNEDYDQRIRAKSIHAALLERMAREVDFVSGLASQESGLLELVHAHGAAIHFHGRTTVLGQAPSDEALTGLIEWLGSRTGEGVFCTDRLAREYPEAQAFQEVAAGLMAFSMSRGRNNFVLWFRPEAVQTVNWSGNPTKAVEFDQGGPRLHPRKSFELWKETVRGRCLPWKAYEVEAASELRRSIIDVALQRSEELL
# T2 sequence (Q097N3 entry or part of it T289H): as the sequence (Q097N3 entry or part of it D208T/T289H) above, with T208D counted along it
# T3 sequence (Q097N3 entry or part of it Y262F/T289H): as the sequence (Q097N3 entry or part of it D208T/T289H) above, with T208D, Y262F counted along it
# T4 sequence (Q097N3 entry or part of it): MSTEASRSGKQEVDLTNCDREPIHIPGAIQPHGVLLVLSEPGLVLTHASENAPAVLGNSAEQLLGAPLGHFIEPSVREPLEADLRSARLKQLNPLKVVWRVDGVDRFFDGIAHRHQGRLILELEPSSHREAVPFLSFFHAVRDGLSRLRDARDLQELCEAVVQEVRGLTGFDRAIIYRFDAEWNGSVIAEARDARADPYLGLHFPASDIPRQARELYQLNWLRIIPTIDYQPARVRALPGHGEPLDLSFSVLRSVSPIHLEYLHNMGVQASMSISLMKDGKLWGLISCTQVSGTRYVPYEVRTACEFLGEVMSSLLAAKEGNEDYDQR
smiles,measurement,setting,value
C=CC1=C(C)C(=Cc2[nH]c(C=C3N=C(C=C4NC(=O)C(C)=C4C=C)C(C)=C3CCC(=O)O)c(CCC(=O)O)c2C)NC1=O [biliverdin],UV-vis absorption spectroscopy of bilin-bound protein,[1],The mutation of Asp208 to threonine (D208T) abolishes the formation of a stable E-configuration
same,"X-ray crystallography (100 K, 2.65 A; XFEL 293 K, 3.15 A)",[2],the BV A ring tilts with the covalent bond to the Cys18 S atom
same,UV-vis absorption spectroscopy of bilin-bound protein,[3],the dark-adapted spectrum of the Y262F T289H double mutant
same,"X-ray crystallography (100 K, 2.25 A)",[4],The BV chromophore is bound to Cys18 close to the N-terminus
same,"X-ray crystallography (100 K, 2.25 A)",[5],electron density that appeared in the chromophore binding pocket was interpreted by a biliverdin linked to Cys18
